“Also recorded” adds a separate entry of the source. Each block holds one molecule with its values, some of them ahead of it.
Legend:
HCT116 colon cancer cell = HCT116 colon cancer cell proliferation (xCELLigence); assay type: cell-based, human; details: for inhibition at 300 µM / IC50: Homo sapiens, HCT-116; for IC50: read-out: IC50 (μM), inhibition of HCT116 colon cancer cell proliferation
Procedure: Cellular proliferation assays are conducted in HCT116 CRC cells in vitro, using the Roche XCelligence method. Concentration-response curves with the various AOAA analogs are prepared (concentration range: 1, 3, 10, 100, 300 and 600 μM). AOAA is used as the reference control, which, according to preliminary data, has an IC50 of approximately 300 μM. Control proliferation studies in the non-carcinogenic colonic epithelial cell line NCM356 are used to confirm cancer-cell selectivity. Since the NCM356 cells contain low levels of CBS, based on previous studies it is expect that AOAA (and its prodrugs) will only exert modest antiproliferative effects in these cells. Proliferation-inhibitory effects of the AOAA prodrugs in NCM356 cells indicate CBS-independent pharmacological actions. A collection of human colorectal tumor tissue samples (and surrounding non-cancerous tissue) are used to test the conversion of the AOAA prodrugs to AOAA in a number of cancer samples.
(§1) Cellular migration and invasion assays were performed as described (Chao et al. (1996) Cancer Res. 56:4811-19). Briefly, 10^5 cells were suspended in serum-free media containing 0.1% BSA and then added to 6.5 mm Transwell chambers ([…]) uncoated (migration assay) or coated with a thin layer (45 μl) of growth factor reduced matrigel (cell invasion assay). Cells were allowed to migrate toward the bottom chamber containing fibroblast (NIH-3T3 cells) conditioned media at 37° C. for 6 or 24 h for cell migration and invasion, respectively. Migrated and invaded cells were then fixed in Carson's fixative, stained in 0.33% toluidine blue and quantified by visual counting. For the HCT116-EAhy926 co-culture experiment, the cancer cell line was grown to confluence in the bottom wells of the transwell chambers and then endothelial cell migration was assessed (Coletta et al. (2012) Proc Natl Acad Sci USA. 109:9161-66). For assessment of colon cell proliferation, the xCELLigence system (Roche) was used (Szabo and Papapetropoulos (2011) Br J Pharmacol. 164:853-65).
For assessment of cell proliferation, the xCELLigence system (Roche) was used. Briefly, HCT116 cells were cultured until approximately 70% confluence. Cells were then detached by Trypsin-EDTA and resuspended in fresh culture media at a concentration of 30,000 cells/ml. 200 μl of cell suspension was added to each well (6,000 cells/well) of a E-plate 96, a specially designed 96-well microtiter plate containing interdigitated microelectrodes to non-invasively monitor the cell proliferation by measuring the relative change in the electrical impedance of the cell monolayer, a unitless parameter named cell index (CI). Cells were then treated with YD02-51 and proliferation was monitored for 48 hours.

HCT116 cells = assay: HCT116 cell migration and invasion (Transwell); assay type: cell-based, human; details: NaHS 30 μM in lower chamber; serum-free media
Procedure: FIG. 3. […] (A, B) The lentiviral shRNA vectors targeting CBS (shCBS) and CSE (shCSE) were transfected into HCT116 cells. A non-targeting sequence was used as control (shNT). […] Following CBS and CSE silencing, cells were seeded at the density of 3000 cells/well in xCELLigence plates and proliferation was monitored for 36 hours. […] The NCM356 cells were infected overnight with a CBS expressing adenovirus (Ad-CBS, 10 multiplicity of infection (MOI)) or its control, a green fluorescent protein (Ad-GFP). The culture media was then replaced and cells were seeded in XCelligence plates at 3000 cells/well. Cell proliferation was then measured real-time over 36 hours. […] (H, I) The effect of AOAA and NaHS was also tested on HCT116 cell migration (H) and invasion (I). Cells were pretreated either with vehicle or AOAA (1 mM) and seeded in serum-free DMEM (0.1% albumin) in the upper chamber of a trans-well insert uncoated (migration assay) or coated with growth factor reduced matrigel (invasion assay). Migration and invasion were stimulated by fibroblast-conditioned media in the lower chamber for 6 and 24 hours, respectively. […] (J) In a co-culture of human endothelial cells (EAhy926) and colon cancer cells (HCT116), HCT 116 cells were seeded in the lower chamber of a trans-well insert and cultured to confluence. Endothelial cells were then seeded into the upper chamber in serum-free DMEM and allowed to migrate for 4 hours at 37° C. […] Western blots are representative of at least three independent experiments; proliferation/migration/invasion assays and H2S measurements represent mean±SEM of n=3 determinations.
as §1, with “109:9161-66).” for “109:9161-66). For assessment of colon cell proliferation, the xCELLigence system (Roche) was used (Szabo and Papapetropoulos (2011) Br J Pharmacol. 164:853-65).”

[1] = tested on: mitochondria isolated from HCT116 cells; assay: Bioenergetic analysis in isolated mitochondria; assay type: cell-based, human; details: L-cysteine 30 nM; mitochondria from control shNT cells
Procedure: Bioenergetic measurements in mitochondria isolated from shNT and shCBS HCT-116 cells were conducted in the absence or presence of L-cysteine (30 nM) (Módis et al. (2013) FASEB J 27:601-11; Wu et al. (2007) Am J Physiol Cell Physiol. 292:C125-36). Basal respiration (State 2) in the presence of succinate and rotenone was measured, followed by State 3 (phosphorylating respiration), in the presence of ADP. State 4o was determined after the addition of oligomycin, and maximal uncoupler-stimulated respiration (State 3u) was assessed in the presence of FCCP.

[2] = tested on: peritumor microvessel blood flow; assay: Tumor microvascular blood flow (laser Doppler); assay type: in vivo, mice; details: intratumoral injection; AOAA 9 mg/kg, L-cysteine 1 mg/kg
Procedure: FIG. 6. L-Cysteine increases, while AOAA reduces microvessel blood flow in tumor bearing mice. Tumor bearing mice were anesthetized by i.p. injection of ketamine-xylazine and a laser Doppler (PeriFlux system 5000) was placed on top of the tumor for microvessel blood flow measurements. After a stabilization period, L-Cys or AOAA were injected subcutaneously in proximity of the tumor. […] Data represent mean±SEM of n=6 determinations.
Skin microvascular blood flow was measured using a PeriFlux 5000 laser-Doppler flowmeter. Mice bearing PTX were anesthetized by ketamine-xylazine (i.p.). The laser-Doppler probe was placed on top of the tumors and a stable basal signal was recorded. Changes in the subcutaneous microcirculatory perfusion were detected following intratumoral injections of either L-cysteine (1 mg/kg) or AOAA (9 mg/kg).

HCT116 tumor xenografts = assay: HCT116 tumor xenograft in nude mice; assay type: in vivo, Nu/nu Balb/C female mice; details: 0.1, 0.5 or 1 mg/kg s.c. 6 days/week; harvest Day 28
Procedure: Nu/nu Balb/C female mice (8-10 weeks) were injected subcutaneously in the right and left dorsum (10^6 cells/side with HCT-116 cells). One week later, the mice were randomized and subcutaneous injections of phosphate buffered saline (PBS) or AOAA (9 mg/kg/day) were performed 6 days/week. Tumor diameters were measured transcutaneously using calipers and tumor volumes were calculated using the formula V=(π/6)hd^2. T-test comparisons of the tumor volumes and final weights at harvest were performed. Xenotrials with patient-derived xenografts (PTX) were performed on nu/nu mice implanted subcutaneously with a piece of Passage 2 tumor measuring 2-5 mm^3 each. When a small palpable tumor was evident at 7-10 days, the mice with tumor take were randomized and subjected to subcutaneous injection of vehicle or AOAA (9 mg/kg/day) 6 days/week. Specimens were fixed with 10% formalin and embedded in paraffin. 5 μm sections were stained with hematoxylin and eosin. Each in vivo experiment was repeated at least twice.
Tissue preparation, immunostaining of CD31, and evaluation of microvessel density with the Chakley reticle was performed as described (Chao et al. (1996) Cancer Res. 56:4811-19).
Nu/nu Balb/c female mice (8-10 weeks) were injected subcutaneously in the right and left dorsum (10^6 cells/side with HCT116 cells). One week later, the mice were randomized and subcutaneous injection of phosphate buffered saline (PBS control) or YD2-51 (0.1, 0.5 or 1 mg/kg) was performed 6 days/week. Tumor volumes and final weights at harvest (post-tumor injection Day 28) were performed and tumor weight/animal weight ratios calculated.

SMILES: [Na+].[SH-] [NaHS, sodium hydrogen sulfide]
HCT116 cell invasion (HCT116 cells): slightly enhanced
HCT116 cell migration (HCT116 cells): slightly enhanced

SMILES: N[C@@H](CS)C(=O)O [L-cysteine]
OCR in state 3 and state 3u respiration [1]: elevates OCR
peritumor / skin microvessel blood flow [2]: increased

SMILES: CCC(CC)OC(=O)CON [YD-2-51, pentan-3-yl 2-(aminooxy)acetate]
tumor growth in tumor-bearing mice (HCT116 tumor xenografts): inhibited tumor growth
tumor cell proliferation (cell index) (HCT116 colon cancer cell; HCT116, 6,000 cells/well, monitored 48 hours): potent, concentration-dependent inhibition

The next lines start with results.

IC50 (HCT116 colon cancer cell): 207 µM
SMILES: CC(C)(C)OC(=O)NOCC(=O)O [YD-2-23]
inhibition at 300 µM (HCT116 colon cancer cell; HCT116): 71%

IC50 (HCT116 colon cancer cell): 181 µM
SMILES: COC(=O)CON [YD-1-71, aminooxyacetic acid methyl ester]
antiproliferative effect in HCT116 compared with parent AOAA (HCT116 colon cancer cell; HCT116): markedly enhances the antiproliferative effect; also recorded: substantially lower concentrations
inhibition at 300 µM (HCT116 colon cancer cell; HCT116): 80%

IC50 (HCT116 colon cancer cell): 159 µM
SMILES: NOCC(=O)OCc1ccccc1 [YD-2-22]
inhibition at 300 µM (HCT116 colon cancer cell; HCT116): 91%

From patent publication US10335382B2, “Use of hydrogen sulfide synthesis inhibitors for cancer therapy” (THE BOARD OF REGENTS OF THE UNIVERSITY OF TEXAS SYSTEM, priority 2013, dated 2019)
